Measurements as given in patent US11396516B2, “Tricyclic compounds as Cyp1 inhibitors” (The General Hospital Corporation, priority 2017, dated 2022).
Where two headings read alike, the source gives them in different places.

Tests used:
[1] = test system: zebrafish embryos treated with DOX (cardiomyopathy phenotype); assay: Zebrafish doxorubicin cardiomyopathy model (rescue from phenotype); type: in vivo; conditions: for rescue from the doxorubicin cardiomyopathy phenotype: zebrafish co-treated with doxorubicin, inhibitors at 10 μM; for protection against doxorubicin cardiotoxicity in the zebrafish model: co-treatment with doxorubicin
Method: Zebrafish embryos at 30 hours post-fertilization were treated with DOX at 100 μM in 96-well plates as previously described (Liu et al., 2014). Tested compounds were dissolved in DMSO and added at concentrations ranging from 3 nM to 10 μM (n=6 fish per dose; <1% DMSO v/v). The cardiomyopathy phenotype (decreased cardiac contraction, pericardial edema, and decreased tail blood flow) was assessed under light microscopy (5× magnification) at 40 hours post-treatment (hpt). Percent rescue from the cardiomyopathy phenotype was calculated for each concentration tested. Zebrafish were considered to be rescued from DOX-induced cardiomyopathy if all three features of the phenotype were absent. For the tested compounds, each dose-response experiment was repeated three times.
Dose-response curves were constructed using Prism (GraphPad).
Zebrafish were treated with DOX and assessed for the development of the cardiomyopathy phenotype (decreased cardiac contraction, pericardial edema, and decreased tail blood flow). Zebrafish were considered to be rescued if all three features of the cardiomyopathy phenotype were absent upon co-treatment with a tested compound. Referring to FIGS. 3-9, data are depicted as mean+/−standard error (n=6 fish per dose; each experiment performed in triplicate).

[2] = test system: zebrafish embryos; assay: Zebrafish toxicity in the absence of doxorubicin (TD50); conditions: without doxorubicin
Method: Dose-response curves were constructed using Prism (GraphPad). Raw data representing percent rescue at each dose was log-transformed, and EC50 values were calculated using nonlinear regression analysis. The median toxic dose (TD50) was defined for each compound by assessing for pericardial edema, non-specific deformities, and death in the absence of doxorubicin treatment (data not shown). Concentrations at and above the TD50 (toxic dose) were excluded from dose-response curves.

[3] = test system: HL-1 cardiomyocytes; assay: Cultured HL-1 cardiomyocyte model (DOX-induced apoptosis, viability); type: cell-based, mouse; conditions: Mus musculus, HL-1; doxorubicin 5 μM, viability after 18 hours, CellTiter-Glo; read-out: EC50 in HL-1 Cells
Method: The cardiomyocyte cell line HL-1 derived from mouse atrial tumor was a gift from W. Claycomb. Cells were cultured as previously published (Claycomb et al., 1998) and treated with doxorubicin 5 μM with or without the tested compounds at a concentration up to 50 μM. Viability was assessed after 18 hours of using a CellTiter-Glo Luminescent assay from Promega. Each dose-response experiment was repeated three times.
Compounds were tested in HL-1 cultured cardiomyocytes to assess for efficacy in preventing DOX-induced apoptosis. Cell viability was assessed as described in the materials and methods section.

[4] = Danio rerio, rescue from DOX cardiomyopathy phenotype, read-out: EC50 in the zebrafish DOX model
[5] = Danio rerio, rescue from DOX (100 μM) cardiomyopathy phenotype, 40 hours post-treatment, read-out: EC50 is zebrafish

Row | SMILES | rescue from the doxorubicin cardiomyopathy phenotype [1] | protection against doxorubicin cardiotoxicity in the zebrafish model [1] | EC50 [1, 5] | EC50 [3] | further results
1 | COc1cc(C=Cc2ccc(OC)cc2OC)cc(OC)c1 [2,4,3′,5′-tetramethoxystilbene] | significant rescue | prevented DOX cardiomyopathy | – | – | EC50 [1, 4]: 8600 nM
2 | Cc1ccccc1N=Nc1ccc(NC(=O)c2ccnn2C)c(C)c1 [CH-233191] | significant rescue | prevented DOX cardiomyopathy | – | – | –
3 | O=c1cc(-c2ccccc2)oc2c1ccc1ccccc12 [α-naphthoflavone] | significant rescue | prevented DOX cardiomyopathy | – | – | EC50 ([1]; rescue from DOX (100 μM) cardiomyopathy phenotype, 40 hours post-treatment, read-out: EC50 is zebrafish): 293 nM
4 | CCSC(=O)NCCOc1c2ccoc2cc2oc(=O)ccc12 [Example 5, S-ethyl (2-((7-oxo-7H-furo[3,2-g]chromen-4-yl)oxy)ethyl)carbamothioate] | – | – | 3 nM | – | –
5 | COC(=O)c1csc(C(=O)c2c[nH]c3ccccc23)n1 [ITE, methyl 2-(1H-indole-3-carbonyl)-1,3-thiazole-4-carboxylate] | – | – | – | – | toxicity to zebrafish embryos without doxorubicin [2]: not toxic
6 | O=c1ccc2c(OCC3CO3)c3ccoc3cc2o1 (stereo not shown) [Example 1, 4-(oxiran-2-ylmethoxy)-7H-furo[3,2-g]chromen-7-one] | – | – | 52 nM | > 50000 nM | –
7 | CC(C)(C)OC(=O)NCCOc1c2ccoc2cc2oc(=O)ccc12 [Example 3] | – | – | 3 nM | > 50000 nM | –
8 | O=C(NCCCOc1c2ccoc2cc2oc(=O)ccc12)Oc1ccccc1 [Example 6] | – | – | 33 nM | > 50000 nM | –
9 | c1cc2ccc3cccc4ccc(c1)c2c34 [pyrene] | significant rescue | prevented DOX cardiomyopathy | – | – | EC50 [1, 4]: 3700 nM
10 | CC(C)(C)OC(=O)NCCOc1c2ccoc2cc2oc(=S)ccc12 [Example 7, tert-butyl (2-((7-thioxo-7H-furo[3,2-g]chromen-4-yl)oxy)ethyl)carbamate] | – | – | 258 nM | – | –
11 | CC(C)(C)OC(=O)N1CC(COc2c3ccoc3cc3oc(=O)ccc23)C1 [Example 4, tert-butyl 3-(((7-oxo-7H-furo[3,2-g]chromen-4-yl)oxy)methyl)azetidine-1-carboxylate] | – | – | 10 nM | > 50000 nM | –
